PubChem BioAssay (NCI)
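Each compound was tested at five concentrations against cells in 96-well plates for 48 hours. Abbreviation: GI50, concentration required for 50% inhibition of growth. The concentration for full growth arrest is given as TGI.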

How the values were obtained:
Test in all cases: NCI anticancer screen, dose series, 48 h
OVCAR-8 ovarian = tested on: OVCAR-8 ovarian
SNB-19 CNS = tested on: SNB-19 CNS
NCI-H226 lung = tested on: NCI-H226 lung
U251 CNS = tested on: U251 CNS
IGROV1 ovarian = tested on: IGROV1 ovarian
786-0 renal = tested on: 786-0 renal
BT-549 breast = tested on: BT-549 breast
NCI/ADR-RES ovarian = tested on: NCI/ADR-RES ovarian
MDA-MB-435 = tested on: MDA-MB-435
MCF7 breast = tested on: MCF7 breast

## Cc1ccc(NS(=O)(=O)c2cc(C(C)(C)C)ccc2OCCOCCOCCOc2ccc(C(C)(C)C)cc2S(=O)(=O)Nc2ccc(C)cc2)cc1
OVCAR-8 ovarian
  TGI: > 100 µM
SNB-19 CNS
  TGI: > 100 µM
NCI-H226 lung
  TGI: > 100 µM
U251 CNS
  TGI: > 100 µM
IGROV1 ovarian
  TGI: > 100 µM
786-0 renal
  TGI: > 100 µM

## Cc1ccc(S(=O)(=O)CNC(=S)CCCC(=S)NCS(=O)(=O)c2ccc(C)cc2)cc1
OVCAR-8 ovarian
  TGI: > 100 µM
SNB-19 CNS
  TGI: > 100 µM
NCI-H226 lung
  TGI: > 100 µM
U251 CNS
  TGI: > 100 µM
IGROV1 ovarian
  TGI: > 100 µM
786-0 renal
  TGI: > 100 µM

## COc1cccc(/C=C/C(=O)c2ccc(Cl)cc2Cl)c1OC
BT-549 breast
  GI50: 5.93 µM
  TGI: 20.2 µM
NCI/ADR-RES ovarian
  GI50: 11.1 µM
  TGI: 25.2 µM
MDA-MB-435
  GI50: 5510 nM
  TGI: 18.7 µM
OVCAR-8 ovarian
  GI50: 3.73 µM
  TGI: 13.7 µM
SNB-19 CNS
  GI50: 4.15 µM
  TGI: 14.9 µM
NCI-H226 lung
  GI50: 9.96 µM
  TGI: 29.6 µM
MCF7 breast
  GI50: 4520 nM
  TGI: 32 µM
U251 CNS
  GI50: 6.19 µM
  TGI: 18.7 µM
786-0 renal
  GI50: 10.3 µM
  TGI: 21.9 µM

## N#CC1C(=N)Cc2ccccc2-c2ccccc21 (stereo unspecified)
BT-549 breast
  GI50: 8.64 µM
  TGI: 38.7 µM
NCI/ADR-RES ovarian
  GI50: 3.33 µM
  TGI: 28.9 µM
MDA-MB-435
  GI50: 1200 nM
  TGI: 3.57 µM
OVCAR-8 ovarian
  GI50: 5.81 µM
  TGI: 41.1 µM
SNB-19 CNS
  GI50: 9.44 µM
  TGI: > 100 µM
NCI-H226 lung
  GI50: 11.4 µM
  TGI: > 100 µM
MCF7 breast
  GI50: 4200 nM
  TGI: 80.1 µM
U251 CNS
  GI50: 4.15 µM
  TGI: 20.6 µM
786-0 renal
  GI50: 9.66 µM
  TGI: 35.2 µM

## O=C([O-])c1ccc2c(c1)-c1nc-2nc2[n-]c(nc3nc(nc4[n-]c(n1)c1ccc(C(=O)[O-])cc41)-c1cc(C(=O)[O-])ccc1-3)c1ccc(C(=O)[O-])cc21.[Fe+2]
OVCAR-8 ovarian
  GI50: > 50 µM
  TGI: > 50 µM
SNB-19 CNS
  GI50: > 50 µM
  TGI: > 50 µM
NCI-H226 lung
  GI50: > 50 µM
  TGI: > 50 µM
U251 CNS
  GI50: > 38.4 µM
  TGI: > 50 µM
IGROV1 ovarian
  GI50: > 50 µM
  TGI: > 50 µM
786-0 renal
  GI50: > 30.7 µM
  TGI: > 50 µM

## COC(=O)c1c2c(c(C)[n+]([O-])c1C)C(=O)C=C(NCc1cccc(OC)c1)C2=O
BT-549 breast
  GI50: 1.29 µM
  TGI: 2.65 µM
NCI/ADR-RES ovarian
  GI50: 0.441 µM
  TGI: 3.15 µM
MDA-MB-435
  GI50: 178 nM
  TGI: 0.33 µM
OVCAR-8 ovarian
  GI50: 0.29 µM
  TGI: 1.4 µM
NCI-H226 lung
  GI50: 1.72 µM
  TGI: 4.48 µM
MCF7 breast
  GI50: 258 nM
  TGI: 0.826 µM
U251 CNS
  GI50: 0.646 µM
  TGI: 2.08 µM
IGROV1 ovarian
  GI50: 0.579 µM
  TGI: 2.18 µM
786-0 renal
  GI50: 1.88 µM
  TGI: 4.85 µM

## COc1ccc(/C=C(/C(=O)N2CCCC2)c2cc(OC)c(OC)c(OC)c2)cc1N
BT-549 breast
  GI50: 6.52 µM
  TGI: 57.8 µM
NCI/ADR-RES ovarian
  GI50: 4.21 µM
  TGI: 63.9 µM
OVCAR-8 ovarian
  GI50: 8.92 µM
  TGI: > 100 µM
SNB-19 CNS
  GI50: 2.87 µM
  TGI: > 100 µM
NCI-H226 lung
  GI50: 4.44 µM
  TGI: > 100 µM
MCF7 breast
  GI50: 921 nM
  TGI: > 100 µM
U251 CNS
  GI50: 4.18 µM
  TGI: > 100 µM
IGROV1 ovarian
  GI50: 3.93 µM
  TGI: > 100 µM
786-0 renal
  GI50: 2.7 µM
  TGI: > 100 µM

## Cc1c(O)c(=O)ccn1C1OC(CO)C(O)C1O (stereo unspecified)
OVCAR-8 ovarian
  TGI: > 100 µM
SNB-19 CNS
  TGI: > 100 µM
NCI-H226 lung
  TGI: > 100 µM
U251 CNS
  TGI: > 100 µM
786-0 renal
  TGI: > 100 µM
